Measurements reported in patent publication US8183262B2, “Pyridine derivatives as mGluR2 antagonists” (Hoffmann-La Roche Inc., priority 2007, dated 2012).

With Cc1cc(-c2ccc(C(F)(F)F)cc2)nc(-c2cccc(-c3cccc(S(=O)(=O)NC(C)(C)C)c3)c2)n1 [Example 165, 3′-[4-Methyl-6-(4-trifluoromethyl-phenyl)-pyrimidin-2-yl]-biphenyl-3-sulfonic acid tert-butylamide] as the compound, how does the melting point read?
The melting point was 163 °C.

With Cc1cc(-c2ccc(Cl)cc2)nc(-c2cccc(-c3cccc(S(N)(=O)=O)c3)c2)n1 [Example 166, 3′-[4-(4-Chloro-phenyl)-6-methyl-pyrimidin-2-yl]-biphenyl-3-sulfonic acid amide] as the compound, how does the melting point read?
Its melting point is 221 °C.

Which melting point does the source give for Cc1cc(-c2ccc(C(F)(F)F)cc2)nc(-c2ccnc(-c3cccc(S(N)(=O)=O)c3)c2)n1 [Example 168, 3-{4-[4-Methyl-6-(4-trifluoromethyl-phenyl)-pyrimidin-2-yl]-pyridin-2-yl}-benzenesulfonamide] here?
Its melting point is 218.5 °C.

For CC(C)(C)NS(=O)(=O)c1ccc(-c2cccc(-c3nc(-c4ccc(Cl)cc4)cc(C(F)(F)F)n3)c2)s1 [Example 169, 5-{3-[4-(4-Chloro-phenyl)-6-trifluoromethyl-pyrimidin-2-yl]-phenyl}-thiophene-2-sulfonic acid tert-butylamide], which melting point is on record?
The melting point was 197.5 °C.

For NS(=O)(=O)c1ccc(-c2cc(-c3nc(-c4ccc(Cl)cc4)cc(C(F)(F)F)n3)ccn2)s1 [Example 170, 5-{4-[4-(4-Chloro-phenyl)-6-trifluoromethyl-pyrimidin-2-yl]-pyridin-2-yl}-thiophene-2-sulfonic acid amide], which melting point is on record?
The melting point was 290 °C.

With NS(=O)(=O)c1ccc(-c2cn(-c3nc(-c4ccc(Cl)cc4)cc(C(F)(F)F)n3)cn2)s1 [Example 171, 5-{1-[4-(4-Chloro-phenyl)-6-trifluoromethyl-pyrimidin-2-yl]-1H-imidazol-4-yl}-thiophene-2-sulfonic acid amide] as the compound, how does the melting point read?
Its melting point is 284 °C.

With Cc1cc(-c2ccc(C(F)(F)F)cc2)nc(-c2cccc(-c3ccc(S(N)(=O)=O)s3)c2)n1 [Example 172, 5-{3-[4-Methyl-6-(4-trifluoromethyl-phenyl)-pyrimidin-2-yl]-phenyl}-thiophene-2-sulfonic acid amide] as the compound, how does the melting point read?
Its melting point is 225 °C.

Which melting point does the source give for Cc1cc(-c2ccc(Cl)cc2)nc(-c2cccc(-c3ccc(S(N)(=O)=O)s3)c2)n1 [Example 173, 5-{3-[4-(4-Chloro-phenyl)-6-methyl-pyrimidin-2-yl]-phenyl}-thiophene-2-sulfonic acid amide] here?
Its melting point is 227 °C.

Which melting point does the source give for NS(=O)(=O)c1ccc(-c2cccc(-c3nc(-c4ccc(Cl)cc4)cc(C(F)(F)F)n3)c2)s1 [Example 174, 5-{3-[4-(4-Chloro-phenyl)-6-trifluoromethyl-pyrimidin-2-yl]-phenyl}-thiophene-2-sulfonic acid amide] here?
Its melting point is 226 °C.

With NS(=O)(=O)c1ccc(-c2cn(-c3nc(-c4ccc(Cl)cc4)cc(C(F)(F)F)n3)cn2)cc1 [Example 175, 4-{1-[4-(4-Chloro-phenyl)-6-trifluoromethyl-pyrimidin-2-yl]-1H-imidazol-4-yl}-benzenesulfonamide] as the compound, how does the melting point read?
Its melting point is 324 °C.

With Cc1cc(-c2ccc(Cl)cc2)nc(-n2cnc(-c3cccc(S(N)(=O)=O)c3)c2)n1 [Example 176, 3-{1-[4-(4-Chloro-phenyl)-6-methyl-pyrimidin-2-yl]-1H-imidazol-4-yl}-benzenesulfonamide] as the compound, how does the melting point read?
The melting point was 275 °C.

For NS(=O)(=O)c1cccc(-c2cn(-c3nc(-c4ccc(Cl)cc4)cc(C(F)(F)F)n3)cn2)c1 [Example 177, 3-{1-[4-(4-Chloro-phenyl)-6-trifluoromethyl-pyrimidin-2-yl]-1H-imidazol-4-yl}-benzenesulfonamide], which melting point is on record?
Its melting point is 225 °C.

For NS(=O)(=O)c1cccc(-c2cccc(-c3nc(-c4ccc(Cl)cc4)cc(C(F)(F)F)n3)c2)c1 [Example 178, 3′-[4-(4-Chloro-phenyl)-6-trifluoromethyl-pyrimidin-2-yl]-biphenyl-3-sulfonic acid amide], which melting point is on record?
The melting point was 165 °C.

Which melting point does the source give for NS(=O)(=O)c1cccc(-c2cc(-c3nc(-c4ccc(Cl)cc4)cc(C(F)(F)F)n3)ccn2)c1 [Example 179, 3-{4-[4-(4-Chloro-phenyl)-6-trifluoromethyl-pyrimidin-2-yl]-pyridin-2-yl}-benzenesulfonamide] here?
Its melting point is 182 °C.

For Cc1cc(-c2ccc(Cl)cc2)nc(-n2cnc(-c3ccc(S(N)(=O)=O)cc3)c2)n1 [Example 180, 4-{1-[4-(4-Chloro-phenyl)-6-methyl-pyrimidin-2-yl]-1H-imidazol-4-yl}-benzenesulfonamide], which melting point is on record?
Its melting point is 312 °C.

With NS(=O)(=O)c1cnc(-c2cn(-c3nc(-c4ccc(C(F)(F)F)cc4)cc(C(F)(F)F)n3)cn2)s1 [Example 181, 2-{1-[4-Trifluoromethyl-6-(4-trifluoromethyl-phenyl)-pyrimidin-2-yl]-1H-imidazol-4-yl}-thiazole-5-sulfonic acid amide] as the compound, how does the melting point read?
The melting point was 264 °C.

With NS(=O)(=O)c1cnc(-c2cn(-c3nc(-c4ccc(Cl)cc4)cc(C(F)(F)F)n3)cn2)s1 [Example 182, 2-{1-[4-(4-Chloro-phenyl)-6-trifluoromethyl-pyrimidin-2-yl]-1H-imidazol-4-yl}-thiazole-5-sulfonic acid amide] as the compound, how does the melting point read?
The melting point was 263 °C.

For Cc1cc(-c2ccc(C(F)(F)F)cc2)nc(-n2cnc(-c3ccc(S(N)(=O)=O)cc3)c2)n1 [Example 183, 4-{1-[4-Methyl-6-(4-trifluoromethyl-phenyl)-pyrimidin-2-yl]-1H-imidazol-4-yl}-benzenesulfonamide], which melting point is on record?
Its melting point is 323 °C.

Which melting point does the source give for Cc1cc(-c2ccc(C(F)(F)F)cc2)nc(-n2cnc(-c3cccc(S(N)(=O)=O)c3)c2)n1 [Example 184, 3-{1-[4-Methyl-6-(4-trifluoromethyl-phenyl)-pyrimidin-2-yl]-1H-imidazol-4-yl}-benzenesulfonamide] here?
Its melting point is 186 °C.

For Nc1ccc(-c2cn(-c3nc(-c4cccc(Cl)c4)cc(C(F)(F)F)n3)cn2)cn1 [Example 186, 5-{1-[4-(3-Chloro-phenyl)-6-trifluoromethyl-pyrimidin-2-yl]-1H-imidazol-4-yl}-pyridin-2-ylamine], which melting point is on record?
The melting point was 248 °C.

Which melting point does the source give for NS(=O)(=O)c1ccc(-c2cn(-c3nc(-c4cccc(Cl)c4)cc(C(F)(F)F)n3)cn2)s1 [Example 188, 5-{1-[4-(3-Chloro-phenyl)-6-trifluoromethyl-pyrimidin-2-yl]-1H-imidazol-4-yl}-thiophene-2-sulfonic acid amide] here?
The melting point was 280 °C.

With Cc1cc(-c2ccc(Cl)cc2)nc(-c2ccnc(-c3cccc(S(N)(=O)=O)c3)c2)n1 [Example 189, 3-{4-[4-(4-Chloro-phenyl)-6-methyl-pyrimidin-2-yl]-pyridin-2-yl}-benzenesulfonamide] as the compound, how does the melting point read?
Its melting point is 224 °C.

Which melting point does the source give for Cc1cc(-c2ccc(Cl)cc2)nc(-n2cnc(-c3ccc(S(N)(=O)=O)s3)c2)n1 [Example 190, 5-{1-[4-(4-Chloro-phenyl)-6-methyl-pyrimidin-2-yl]-1H-imidazol-4-yl}-thiophene-2-sulfonic acid amide] here?
The melting point was 281 °C.

For Cc1cc(-c2ccc(C(F)(F)F)cc2)nc(-n2cnc(-c3ccc(S(N)(=O)=O)s3)c2)n1 [Example 191, 5-{1-[4-Methyl-6-(4-trifluoromethyl-phenyl)-pyrimidin-2-yl]-1H-imidazol-4-yl}-thiophene-2-sulfonic acid amide], which melting point is on record?
Its melting point is 277 °C.
